Measured values: ChEMBL document CHEMBL1201862, “PubChem BioAssay data set” (2004)
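How tested: cells in 96-well plates exposed to compound for 48 hours at five concentrations. At the GI50, growth is halved.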 Calls of active or inactive are those of the source. Cut-off read from the data, not from the text of the source: active = GI50 up to about 1.1 µM and inactive = higher.

Experiments:
Assay in all cases: DTP human tumour cell line panel, 48 h
A549 = system: A549
CCRF-CEM = system: CCRF-CEM
EKVX = system: EKVX
HCC 2998 = system: HCC 2998
HCT-116 = system: HCT-116
HCT-15 = system: HCT-15
HT-29 = system: HT-29
KM12 = system: KM12
NCI-H23 = system: NCI-H23
OVCAR-5 = system: OVCAR-5
RPMI-8226 = system: RPMI-8226
SF-268 = system: SF-268
SF-295 = system: SF-295
SK-MEL-28 = system: SK-MEL-28
SK-MEL-2 = system: SK-MEL-2
SN12C = system: SN12C
SNB-19 = system: SNB-19
U-251 = system: U-251
UACC-257 = system: UACC-257
UO-31 = system: UO-31

Row | Compound | GI50 (A549) | GI50 (CCRF-CEM) | GI50 (EKVX) | GI50 (HCC 2998) | GI50 (HCT-116) | GI50 (HCT-15) | GI50 (HT-29) | GI50 (KM12) | GI50 (NCI-H23) | GI50 (OVCAR-5) | GI50 (RPMI-8226) | GI50 (SF-268) | GI50 (SF-295) | GI50 (SK-MEL-28) | GI50 (SK-MEL-2) | GI50 (SN12C) | GI50 (SNB-19) | GI50 (U-251) | GI50 (UACC-257) | GI50 (UO-31)
1 | COc1ccc2cc1Oc1ccc(cc1)C[C@H]1c3cc(c(OC)cc3CCN1C)Oc1c(O)c(OC)cc3c1[C@H](C2)N(C)CC3 [FANGCHINOLINE] | 31.5 µM (inactive) | 24.3 µM (inactive) | 4.45 µM (inactive) | 17.6 µM (inactive) | 13.3 µM (inactive) | 13.3 µM | 22.3 µM (inactive) | 16.8 µM (inactive) | 40 µM (inactive) | 46.3 µM (inactive) | 8.91 µM (inactive) | 30.2 µM (inactive) | 16.9 µM (inactive) | 21.8 µM (inactive) | 26.5 µM (inactive) | 38.8 µM (inactive) | 43.8 µM (inactive) | 27.2 µM (inactive) | 9.48 µM (inactive) | 25.5 µM (inactive)
2 | C=C1OC(=O)[C@]2([C@@H](/C=C/C)C=CC(=O)[C@H]2O)[C@@H]1O | > 100 µM (inactive) | > 100 µM (inactive) | > 100 µM (inactive) | > 100 µM (inactive) | > 100 µM (inactive) | > 100 µM | > 100 µM (inactive) | > 100 µM (inactive) | > 100 µM (inactive) | > 100 µM (inactive) | > 100 µM (inactive) | > 100 µM (inactive) | > 100 µM (inactive) | > 100 µM (inactive) | > 100 µM (inactive) | > 100 µM (inactive) | > 100 µM (inactive) | > 100 µM (inactive) | > 100 µM (inactive) | > 100 µM (inactive)
3 | COc1cc(/C=C/C2=C(C#N)C(=O)OC2(C)C)ccc1O | > 100 µM (inactive) | 13.3 µM (inactive) | > 100 µM (inactive) | 71.9 µM (inactive) | 37.9 µM (inactive) | 28 µM | 48.2 µM (inactive) | 30.9 µM (inactive) | > 100 µM (inactive) | > 100 µM (inactive) | 20.4 µM (inactive) | 46.6 µM (inactive) | 46.1 µM (inactive) | > 100 µM (inactive) | > 100 µM (inactive) | 55 µM (inactive) | > 100 µM (inactive) | 17.4 µM (inactive) | > 100 µM (inactive) | 44.9 µM (inactive)
4 | N/C(=N\O)N/N=C\c1cc([N+](=O)[O-])cc([N+](=O)[O-])c1O | 8.51 µM (inactive) | 6.61 µM (inactive) | > 100 µM (inactive) | 14.5 µM (inactive) | 4.92 µM (inactive) | 6.14 µM | 11.4 µM (inactive) | 2.94 µM (inactive) | 28.8 µM (inactive) | > 30.5 µM (inactive) | 16.5 µM (inactive) | 62.1 µM (inactive) | 4.16 µM (inactive) | > 100 µM (inactive) | > 100 µM (inactive) | 24.2 µM (inactive) | > 96.2 µM (inactive) | 10.5 µM (inactive) | 98.2 µM (inactive) | 4.67 µM (inactive)
5 | N#C/C(=C\c1cccc(O)c1O)C(N)=O | 65.3 µM (inactive) | 14.1 µM (inactive) | 34.8 µM (inactive) | 20.3 µM (inactive) | 34.5 µM (inactive) | 57.8 µM | 58.5 µM (inactive) | 36.3 µM (inactive) | 34.8 µM (inactive) | > 100 µM (inactive) | 18.3 µM (inactive) | 37.9 µM (inactive) | 58.1 µM (inactive) | 30.8 µM (inactive) | 38.4 µM (inactive) | 45.6 µM (inactive) | 57.5 µM (inactive) | 61.4 µM (inactive) | 39.5 µM (inactive) | 22.7 µM (inactive)
6 | O=C1C(Cl)=C(N2CCC[C@H]2CO)C(=O)c2c(O)ccc(O)c21 | 8.2 µM (inactive) | 0.22 µM (active) | 9.16 µM (inactive) | 4.55 µM (inactive) | 1.64 µM (inactive) | 1.95 µM | 4.18 µM (inactive) | 4.34 µM (inactive) | 2.29 µM (inactive) | > 10 µM (inactive) | 0.379 µM (active) | 3.74 µM (inactive) | > 10 µM (inactive) | 1.55 µM (inactive) | 2.53 µM (inactive) | 1.71 µM (inactive) | > 10 µM (inactive) | > 10 µM (inactive) | 1.35 µM (inactive) | 2.24 µM (inactive)
7 | O=c1cnn(C2OC(CO)C(O)C2O)c(=S)[nH]1 (stereo not given) | 2.15 µM (inactive) | 2.52 µM (inactive) | > 100 µM (inactive) | > 87.1 µM (inactive) | 1.67 µM (inactive) | 2.09 µM | 13.5 µM (inactive) | 22.3 µM (inactive) | > 94 µM (inactive) | > 78.3 µM (inactive) | 0.993 µM (active) | 11.1 µM (inactive) | 11.9 µM (inactive) | > 100 µM (inactive) | 20.4 µM (inactive) | > 82 µM (inactive) | 43.1 µM (inactive) | 3.03 µM (inactive) | > 100 µM (inactive) | 28.2 µM (inactive)
8 | ClCc1nnc2n1-c1ccc(Cl)cc1SC2 | 5.05 µM (inactive) | 2.19 µM (inactive) | 13.3 µM (inactive) | 4.06 µM (inactive) | 3.1 µM (inactive) | 4.56 µM | 3.65 µM (inactive) | 4.35 µM (inactive) | 2.35 µM (inactive) | 12.2 µM (inactive) | 3.3 µM (inactive) | 2.87 µM (inactive) | 2.21 µM (inactive) | 4.74 µM (inactive) | 2.81 µM (inactive) | 7.26 µM (inactive) | 13 µM (inactive) | 6.59 µM (inactive) | 2.16 µM (inactive) | 15.1 µM (inactive)
9 | COc1cc2cc(C(=O)N3CC(CCl)c4c3cc(N(C)C)c3ccccc43)[nH]c2c(OC)c1OC (stereo not given) | < 0.01 µM (active) | < 0.01 µM (active) | < 0.01 µM (active) | 0.0101 µM (active) | < 0.01 µM (active) | < 0.0115 µM | < 0.01 µM (active) | 0.0117 µM (active) | < 0.01 µM (active) | < 0.0108 µM (active) | 0.0144 µM (active) | < 0.01 µM (active) | < 0.01 µM (active) | 0.0483 µM (active) | < 0.01 µM (active) | < 0.01 µM (active) | 0.0124 µM (active) | < 0.01 µM (active) | 0.0273 µM (active) | < 0.01 µM (active)
10 | O=C1c2ccccc2-c2nnc(-c3ccc([N+](=O)[O-])cc3)cc21 | > 10 µM (inactive) | > 10 µM (inactive) | > 10 µM (inactive) | > 10 µM (inactive) | > 10 µM (inactive) | > 10 µM | > 10 µM (inactive) | > 10 µM (inactive) | > 10 µM (inactive) | > 10 µM (inactive) | > 10 µM (inactive) | > 10 µM (inactive) | > 10 µM (inactive) | > 10 µM (inactive) | > 10 µM (inactive) | > 10 µM (inactive) | > 10 µM (inactive) | > 10 µM (inactive) | > 10 µM (inactive) | > 10 µM (inactive)
